From ChEMBL document CHEMBL1201862, “PubChem BioAssay data set” (2004)
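96-well plates; 48 h exposure; 5 concentrations. Endpoints by linear interpolation between flanking doses. Not reached: highest tested concentration assigned. GI50 marks 50% less growth.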 Activity calls are given as the source filed them. Cut-off read from the data, not from the text of the source: active = GI50 up to about 1.1 µM and inactive = higher.

Experiments:
Test in all cases: DTP human tumour cell line panel, 48 h
786-0 = tested on: 786-0
NCI-H522 = tested on: NCI-H522
Malme-3M = tested on: Malme-3M
SK-MEL-2 = tested on: SK-MEL-2
UACC-62 = tested on: UACC-62
HCT-116 = tested on: HCT-116
HOP-62 = tested on: HOP-62
CAKI-1 = tested on: CAKI-1
HL-60 = tested on: HL-60
HOP-92 = tested on: HOP-92
LOX IMVI = tested on: LOX IMVI
CCRF-CEM = tested on: CCRF-CEM
K562 = tested on: K562
SK-MEL-5 = tested on: SK-MEL-5
SK-MEL-28 = tested on: SK-MEL-28
SW-620 = tested on: SW-620
OVCAR-8 = tested on: OVCAR-8
KM12 = tested on: KM12
BT-549 = tested on: BT-549
SK-OV-3 = tested on: SK-OV-3

Row | Compound | GI50 (786-0) | GI50 (NCI-H522) | GI50 (Malme-3M) | GI50 (SK-MEL-2) | GI50 (UACC-62) | GI50 (HCT-116) | GI50 (HOP-62) | GI50 (CAKI-1) | GI50 (HL-60) | GI50 (HOP-92) | GI50 (LOX IMVI) | GI50 (CCRF-CEM) | GI50 (K562) | GI50 (SK-MEL-5) | GI50 (SK-MEL-28) | GI50 (SW-620) | GI50 (OVCAR-8) | GI50 (KM12) | GI50 (BT-549) | GI50 (SK-OV-3)
1 | N#Cc1c(Cl)cc(Cl)n2c1nc1ccccc12 | 2.86 µM (inactive) | 2.29 µM (inactive) | 2.76 µM (inactive) | 17.6 µM (inactive) | 12.6 µM (inactive) | 4.74 µM (inactive) | 22.9 µM (inactive) | 3.43 µM (inactive) | 1.31 µM (inactive) | 4.85 µM (inactive) | 6.84 µM (inactive) | 2.49 µM (inactive) | 2.61 µM (inactive) | 14.3 µM (inactive) | 7.35 µM (inactive) | 3.15 µM (inactive) | 15.3 µM (inactive) | 18.3 µM (inactive) | 6.38 µM (inactive) | 16.9 µM (inactive)
2 | Brc1ccc2[nH]cc([C@@H]3CN[C@@H](c4c[nH]c5ccc(Br)cc45)CN3)c2c1 | 3.94 µM (inactive) | 2.21 µM (inactive) | 14.8 µM (inactive) | 8.95 µM (inactive) | 7.52 µM (inactive) | 4.18 µM (inactive) | 8.18 µM (inactive) | 8.93 µM (inactive) | 1.82 µM (inactive) | 1.36 µM (inactive) | 1.66 µM (inactive) | 2.16 µM (inactive) | 1.77 µM (inactive) | 7.93 µM (inactive) | 13.7 µM (inactive) | 4.18 µM (inactive) | 3.63 µM (inactive) | 2.07 µM (inactive) | 14.8 µM (inactive) | 12.7 µM (inactive)
3 | C=C(C)[C@@H]1CC[C@]2(C(=O)O)CC[C@]3(C)[C@H](CC[C@@H]4[C@@]5(C)CC[C@H](O)C(C)(C)[C@@H]5CC[C@]43C)[C@@H]12 [BETULINIC ACID] | 10.2 µM (inactive) | 3.21 µM (inactive) | 7.59 µM (inactive) | 12.4 µM (inactive) | 14.1 µM (inactive) | 4.27 µM (inactive) | 8.36 µM (inactive) | 11.6 µM (inactive) | 2.97 µM (inactive) | 3.27 µM (inactive) | 11.3 µM (inactive) | 5.15 µM (inactive) | 5.13 µM (inactive) | 4.19 µM (inactive) | 17.1 µM (inactive) | 18.2 µM (inactive) | 4.85 µM (inactive) | 5.93 µM (inactive) | 2.53 µM (inactive) | 15.9 µM (inactive)
4 | COc1ccc(-c2cc(=O)c3c(O)c(OC)c(OC)c(OC)c3o2)cc1 [GARDENIN B] | 21.5 µM (inactive) | 6.58 µM (inactive) | > 28.6 µM (inactive) | 12.8 µM (inactive) | 45.3 µM (inactive) | 13.4 µM (inactive) | 24.5 µM (inactive) | > 100 µM (inactive) | 0.863 µM (active) | 27.4 µM (inactive) | 17.6 µM (inactive) | > 100 µM (inactive) | 0.498 µM (active) | 5.52 µM (inactive) | > 100 µM (inactive) | 2.13 µM (inactive) | > 100 µM (inactive) | 0.92 µM (active) | 16.2 µM (inactive) | 8.38 µM (inactive)
